EC50 data for 15 compounds are collected here from patent EP3741762A1, “OXALAMIDO-SUBSTITUTED TRICYCLIC INHIBITORS OF HEPATITIS B VIRUS” (priority 2019, dated 2020).

The assay deals with HBV. The assay is described as follows: Anti-HBV activity in vitro: quantification of extracellular HBV DNA by direct qPCR in HepAD38 cells. The format is cell-based. The following applies: Hepatitis B virus, tetracycline-free medium, 96 hours at 37°C, reported as EC50 threshold value, read-out: HBV inh EC50. The text has this: HepAD38 cell line (Ladner et al., Antimicrob Agents Chemother, 1997, 41, 1715-20) was used for HBV inhibition assays. HepAD38 is a subclone, derived from Hepatoblastoma cell line HepG2 (ATCC® Number: HB-8065™), that expresses HBV genome under the transcriptional control of a tetracycline-responsive promoter in a TET-OFF system: addition of tetracycline (TET) or doxycycline suppresses HBV replication, while its removal switches on the process allowing HBV viral particles release in the cell supernatant. HepAD38 cell line is maintained in DMEM/F12, supplemented with 10% of fetal bovine serum, 1% of glutamine, 1% of penicillin/streptomycin, 0.4 mg/ml G418 and 0,3 ug/ml tetracycline. For the HBV inhibition assay, doxycycline-free medium is used in order to allow virion production.
HBV inhibition activity in vitro was performed in 96 multiwell plates. During the initial (primary) screening, compounds were first tested in triplicates at concentrations of 0.02 µM, 0.1 µM, 0.5µM and 1µM. For selected compounds, an 8-point dose-response curve was obtained using 1:2 serial dilutions (starting from 0.01µM, 0.1µM, 0.4µM or 5 µM, depending on the degree of inhibition observed during the primary screening). From the dose-response curves, half maximal effective concentration (EC50) could be calculated (see also below).
In more detail, compounds - typically dissolved in DMSO stock solutions - were diluted to 2x the final desired concentration in 100 µl of the above medium (without doxycycline) and plated in three replicates in the 96-well plates.
Simultaneously, HepAD38 cells - extensively pre-washed in tetracycline-free medium in order to induce HBV production - were suspended at 2^∗10^4 cells in 100 µl of tetracycline-free medium and added to each well of the plate, to yield a final assay volume of 200 µl DMSO - used for stock solutions and compounds dilutions - which was always present in the assays at a final concentration of 0.5%.
Plates were then incubated 96 hours at 37°C and then subjected to cell viability assays and extracellular HBV quantification, in order to evaluate both the cytotoxic potential and the antiviral activity of compounds. Cytotoxicity was assessed by a commercial fluorescence assay that measures the metabolic activity of cells, directly related to cell viability (Cell Titer Blue, Promega). Anti-HBV activity was evaluated by quantification of extracellular HBV DNA with direct qPCR. In particular, supernatant was collected and centrifuged for cell debris clarification, viral DNA was extracted from virions by addition of lysis buffer (1 mM 1,4-dithiothreitol, 0.2% sodium dodecyl sulphate) and incubated at 95°C for 10 min. Samples were then diluted 1:40 and real time PCR amplification was performed with SYBR green assay (Power SYBR™ Green PCR Master Mix-Thermo Fisher Scientific) and specific HBV primer (HBV-DF:5'-[…]-3' (SEQ ID No. 1), HBV-DR:5'-[…]-3' (SEQ ID No.2)).
Antiviral activity data for each compound are reported as EC50 threshold value (see Table 1 legend). Excel and Graphpad Prism programs are typically used for data elaboration and EC50 calculation.
For orientation: Real-time PCR tracks product formation cycle by cycle.
Usually EC50 stands for the concentration giving half of the maximal effect. With `Cc1cc(NC(=O)c2c3c(cn2C)S(=O)(=O)N[C@H]2CN(C(=O)C(=O)NC4(C)CC4)C[C@H]2CO3)ccc1F` [Example E18, (3aR,10aR)-N-(4-fluoro-3-methylphenyl)-7-methyl-2-(2-((1-methylcyclopropyl)amino)-2-oxoacetyl)-2,3,3a,4,10,10a-hexahydro-1H,7H-dipyrrolo[3,4-b:3',4'-f][1,4,5]oxathiazocine-8-carboxamide 5,5-dioxide], the EC50 is less than 500 nM.
Consider `Cc1cc(NC(=O)c2c3c(cn2C)S(=O)(=O)N[C@@H]2CN(C(=O)C(N)=O)C[C@@H]2CO3)ccc1F` (relative stereo) [Example E11, cis-2-(2-amino-2-oxoacetyl)-N-(4-fluoro-3-methylphenyl)-7-methyl-2,3,3a,4,10,10a-hexahydro-1H,7H-dipyrrolo[3,4-b:3',4'-f][1,4,5]oxathiazocine-8-carboxamide 5,5-dioxide], for which the EC50 was less than 500 nM.
For `Cc1cc(NC(=O)c2c3c(cn2C)S(=O)(=O)N[C@]2(C)CN(C(=O)C(=O)N[C@H](C)C(F)(F)F)C[C@@H]2CO3)ccc1F` (stereo in doubt) [Example E27, Cis-N-(4-fluoro-3-methylphenyl)-3a,7-dimethyl-2-(2-oxo-2-(((R)-1,1,1-trifluoropropan-2-yl)amino)acetyl)-2,3,3a,4,10,10a-hexahydro-1H,7H-dipyrrolo[3,4-b:3',4'-f][1,4,5] oxathiazocine-8-carboxamide 5,5-dioxide] the value was less than 500 nM; for `Cc1cc(NC(=O)c2c3c(cn2C)S(=O)(=O)N[C@H]2CN(C(=O)C(=O)N[C@@H](C)C(F)(F)F)C[C@H]2CO3)ccc1F` [Example E15, (3aR,10aR)-N-(4-fluoro-3-methylphenyl)-7-methyl-2-(2-oxo-2-(((S)-1,1,1-trifluoropropan-2-yl)amino)acetyl)-2,3,3a,4,10,10a-hexahydro-1H,7H-dipyrrolo[3,4-b:3',4'-f][1,4,5]oxathiazocine-8-carboxamide 5,5-dioxide], less than 500 nM.
In the case of `Cn1cc2c(c1C(=O)Nc1ccc(F)c(Cl)c1)OC[C@@H]1CN(C(=O)C(=O)NC3(C)COC3)C[C@@H]1NS2(=O)=O` [Example E5, (3aR,10aR)-N-(3-chloro-4-fluorophenyl)-7-methyl-2-(2-((3-methyloxetan-3-yl)amino)-2-oxoacetyl)-2,3,3a,4,10,10a-hexahydro-1H,7H-dipyrrolo[3,4-b:3',4'-f][1,4,5] oxathiazocine-8-carboxamide 5,5-dioxide], the EC50 was less than 500 nM.
The value for `Cn1cc2c(c1C(=O)Nc1ccc(F)c(C#N)c1)OC[C@@H]1CN(C(=O)C(=O)NC3(C)COC3)C[C@@H]1NS2(=O)=O` [Example E6, (3aR,10aR)-N-(3-cyano-4-fluorophenyl)-7-methyl-2-(2-((3-methyloxetan-3-yl)amino)-2-oxoacetyl)-2,3,3a,4,10,10a-hexahydro-1H,7H-dipyrrolo[3,4-b:3',4'-f][1,4,5] oxathiazocine-8-carboxamide 5,5-dioxide] was greater than 500 nM; that for `Cc1cc(NC(=O)c2c3c(cn2C)S(=O)(=O)N[C@H]2CN(C(=O)C(=O)N[C@H](C)C(F)(F)F)C[C@H]2CS3)ccc1F` [Example E24, (3aR,10aR)-N-(4-fluoro-3-methylphenyl)-7-methyl-2-(2-oxo-2-(((R)-1,1,1-trifluoropropan-2-yl)amino)acetyl)-2,3,3a,4,10,10a-hexahydro-1H,7H-dipyrrolo[3,4-c:3',4'-g][1,6,2] dithiazocine-8-carboxamide 5,5-dioxide] was less than 500 nM.
For `Cc1cc(NC(=O)c2c3c(cn2C)S(=O)(=O)N[C@H]2CN(C(=O)C(=O)NC4(C)CC4)C[C@H]2CS3)ccc1F` [Example E40, (3aR,10aR)-N-(4-fluoro-3-methylphenyl)-7-methyl-2-(2-((1-methylcyclopropyl)amino)-2-oxoacetyl)-2,3,3a,4,10,10a-hexahydro-1H,7H-dipyrrolo[3,4-c:3',4'-g][1,6,2]dithiazocine-8-carboxamide 5,5-dioxide] the value was less than 500 nM; for `Cc1cc(NC(=O)c2c3c(cn2C)S(=O)(=O)N[C@H]2CN(C(=O)C(=O)NC(C)(C)C)C[C@H]2CO3)ccc1F` [Example E7, (3aR,10aR)-2-(2-(tert-butylamino)-2-oxoacetyl)-N-(4-fluoro-3-methylphenyl)-7-methyl-2,3,3a,4,10,10a-hexahydro-1H,7H-dipyrrolo[3,4-b:3',4'-f][1,4,5]oxathiazocine-8-carboxamide 5,5-dioxide], less than 500 nM; for `Cc1cc(NC(=O)c2c3c(cn2C)S(=O)(=O)N[C@H]2CN(C(=O)C(=O)NC4CC4)C[C@H]2CO3)ccc1F` [Example E8, (3aR,10aR)-2-(2-(cyclopropylamino)-2-oxoacetyl)-N-(4-fluoro-3-methylphenyl)-7-methyl-2,3,3a,4,10,10a-hexahydro-1H,7H-dipyrrolo[3,4-b:3',4'-f][1,4,5]oxathiazocine-8-carboxamide 5,5-dioxide], less than 500 nM.
The value for `Cc1cc(NC(=O)c2c3c(cn2C)S(=O)(=O)N[C@H]2CN(C(=O)C(=O)N4CC(F)(F)C4)C[C@H]2CO3)ccc1F` [Example E29, (3aR,10aR)-2-(2-(3,3-difluoroazetidin-1-yl)-2-oxoacetyl)-N-(4-fluoro-3-methylphenyl)-7-methyl-2,3,3a,4,10,10a-hexahydro-1H,7H-dipyrrolo[3,4-b:3',4'-f][1,4,5]oxathiazocine-8-carboxamide 5,5-dioxide] was less than 500 nM.
On to `Cc1cc(NC(=O)c2c3c(cn2C)S(=O)(=O)N[C@@H]2CN(C(=O)C(=O)NC4CC4)C[C@H]2CO3)ccc1F` (relative stereo) [Example E31, trans-2-(2-(cyclopropylamino)-2-oxoacetyl)-N-(4-fluoro-3-methylphenyl)-7-methyl-2,3,3a,4,10,10a-hexahydro-1H,7H-dipyrrolo[3,4-b:3',4'-f][1,4,5]oxathiazocine-8-carboxamide 5,5-dioxide], for which the EC50 is less than 500 nM.
The value for `Cc1cc(NC(=O)c2c3c(cn2C)S(=O)(=O)N[C@@H]2CN(C(=O)C(=O)NC4CC4)C[C@]2(C)CO3)ccc1F` (relative stereo) [Example E25, cis-2-(2-(cyclopropylamino)-2-oxoacetyl)-N-(4-fluoro-3-methylphenyl)-7,10a-dimethyl-2,3,3a,4,10,10a-hexahydro-1H,7H-dipyrrolo[3,4-b:3',4'-f][1,4,5]oxathiazocine-8-carboxamide 5,5-dioxide] was less than 500 nM.
For `CNC(=O)C(=O)N1C[C@@H]2COc3c(cn(C)c3C(=O)Nc3ccc(F)c(C)c3)S(=O)(=O)N[C@@H]2C1` (relative stereo) [Example E10, cis N-(4-fluoro-3-methylphenyl)-7-methyl-2-(2-(methylamino)-2-oxoacetyl)-2,3,3a,4,10,10a-hexahydro-1H,7H-dipyrrolo[3,4-b:3',4'-f][1,4,5]oxathiazocine-8-carboxamide 5,5-dioxide] the value was less than 500 nM; for `Cc1cc(NC(=O)c2c3c(cn2C)S(=O)(=O)N[C@H]2CN(C(=O)C(N)=O)C[C@H]2CS3)ccc1F` [Example E34, (3aR,10aR)-2-(2-amino-2-oxoacetyl)-N-(4-fluoro-3-methylphenyl)-7-methyl-2,3,3a,4,10,10a-hexahydro-1H,7H-dipyrrolo[3,4-c:3',4'-g][1,6,2]dithiazocine-8-carboxamide 5,5-dioxide], less than 500 nM.
